{
  "source": "patent US4005095A",
  "about": "“Substituted thienyl-acetic acid esters” (Innothera, priority 1974, dated 1977)",
  "key": {"[1]": {"test_system": "rat duodenum", "experiment": "spasmolytic activity, papaverine type (contracting agent barium chloride), technique of MAGNUS", "type": "cell-based", "details": "for IC50: Tyrode solution 38° C, concentration causing 50% inhibition of the contraction, compound tested (X), read-out: Spasmolytic activity, papaverine type, ED 50 (X); for Spasmolytic activity, papaverine type, ratio of ED 50 values, reference (R) to compound (X): relative to papaverine hydrochloride", "protocol": "The spasmolytic activity was studied on the rat duodenum (1) or on the guinea pig ileum (2), kept alive in an aerated Tyrode solution heated to 38° C, in accordance with the technique of MAGNUS (Archiv. Ges. Physiol., 1905, 180, 1-71).\n(1) The contracting agent used was barium chloride and the reference antagonistic agent was papaverine hydrochloride (R)."}, "[2]": {"experiment": "in vivo", "details": "mouse, in vivo, ip", "protocol": "(§1) The acute toxicity was evaluated by intraperitoneal administration to mice. The products were suspended in a dilute pseudo-solution of carboxymethyl-cellulose.\n(§2) The mortality was checked over the course of the 7 days which followed the treatment."}, "[3]": {"test_system": "guinea pig ileum", "experiment": "spasmolytic activity, atropine type (contracting agent acetylcholine chloride), technique of MAGNUS", "details": "Cavia porcellus, read-out: Spasmolytic activity, atropine type, ED 50 (X)", "description": "(2) The contracting agent used was acetylcholine chloride and the reference antagonistic agent was atropine sulphate (R).\nAgain, the activity of the compounds tested (X) was compared with that of the reference agent chosen (R), by calculating the ratio of their ED 50 values."}, "[4]": {"test_system": "mice", "experiment": "in vivo", "details": "mice, intraperitoneal, mortality over 7 days", "protocol": "as §1, §2"}},
  "note": "Structures can show the parent of a compound that is named as a salt.",
  "data": [
    {"smiles": "O=C(OCCCN1CCCCC1)C(=C1CCCCC1)c1ccsc1", "note": "[Example 24, 3-Piperidino-propyl cyclohexylidene-(thienyl-3)-acetate hydrochloride]", "values": [
      {"measurement": "IC50", "setting": "[1]", "value": 0.8, "unit": "µg/mL"},
      {"measurement": "Spasmolytic activity, papaverine type, ratio of ED 50 values, reference (R) to compound (X)", "setting": "[1]", "value": 1.56},
      {"measurement": "LD50 at 168 h", "setting": "[2]", "value": 150, "unit": "mg/kg"},
      {"measurement": "IC50", "setting": "[3]", "value": 0.8, "unit": "µg/mL"}
    ]},
    {"smiles": "CCN(CC)CCCOC(=O)C(c1ccsc1C)C1CCCCC1", "note": "(stereo not shown) [Example 22, 3-Diethylaminopropyl (2-methyl-thienyl-3)-cyclohexyl-acetate hydrochloride]", "values": [
      {"measurement": "IC50", "setting": "[1]", "value": 0.38, "unit": "µg/mL"},
      {"measurement": "Spasmolytic activity, papaverine type, ratio of ED 50 values, reference (R) to compound (X)", "setting": "[1]", "value": 19.75},
      {"measurement": "LD50 at 168 h", "setting": "[2]", "value": 80, "unit": "mg/kg"},
      {"measurement": "IC50", "setting": "[3]", "value": 0.0115, "unit": "µg/mL"}
    ]},
    {"smiles": "CC(C[N+]1(C)CCCC1)OC(=O)C(=C1CCCCC1)c1ccsc1.[I-]", "note": "(stereo not shown) [Example 25, 2-Pyrrolidino-isopropyl cyclohexylidene-(thienyl-3)-acetate (mono-iodomethylate)]", "values": [
      {"measurement": "Spasmolytic activity, papaverine type, ratio of ED 50 values, reference (R) to compound (X)", "setting": "[1]", "value": 1},
      {"measurement": "Acute toxicity in mice, intraperitoneal administration, LD 50", "setting": "[4]", "value": 80, "unit": "mg/kg"}
    ]},
    {"smiles": "O=C(OCCN1CCCCC1)C(=C1CCCCC1)c1ccsc1", "note": "[Example 23, 2-Piperidino-ethyl cyclohexylidene-(thienyl-3)-acetate (hydrochloride)]", "values": [
      {"measurement": "IC50", "setting": "[1]", "value": 2.4, "unit": "µg/mL"},
      {"measurement": "Spasmolytic activity, papaverine type, ratio of ED 50 values, reference (R) to compound (X)", "setting": "[1]", "value": 1.46},
      {"measurement": "LD50 at 168 h", "setting": "[2]", "value": 80, "unit": "mg/kg"},
      {"measurement": "IC50", "setting": "[3]", "value": 0.39, "unit": "µg/mL"}
    ]},
    {"smiles": "Cc1ccc(C(C(=O)OCCCN2CCCC2)c2ccccc2)s1", "note": "(stereo not shown) [Example 21, 3-Pyrrolidino-propyl (5-methyl-thienyl-2)-phenyl-acetate (oxalate)]", "values": [
      {"measurement": "IC50", "setting": "[1]", "value": 2.55, "unit": "µg/mL"},
      {"measurement": "Spasmolytic activity, papaverine type, ratio of ED 50 values, reference (R) to compound (X)", "setting": "[1]", "value": 2.16},
      {"measurement": "LD50 at 168 h", "setting": "[2]", "value": 100, "unit": "mg/kg"},
      {"measurement": "IC50", "setting": "[3]", "value": 0.1, "unit": "µg/mL"}
    ]},
    {"smiles": "CCN(CC)CCCOC(=O)C(c1ccc(C)s1)C1CCCCC1", "note": "(stereo not shown) [Example 20, 3-Diethylaminopropyl (5-methyl-thienyl-2)-cyclohexyl-acetate (hydrochloride)]", "values": [
      {"measurement": "IC50", "setting": "[1]", "value": 1.1, "unit": "µg/mL"},
      {"measurement": "Spasmolytic activity, papaverine type, ratio of ED 50 values, reference (R) to compound (X)", "setting": "[1]", "value": 5.45},
      {"measurement": "LD50 at 168 h", "setting": "[2]", "value": 80, "unit": "mg/kg"},
      {"measurement": "IC50", "setting": "[3]", "value": 0.009, "unit": "µg/mL"}
    ]}
  ]
}
